The values that follow come from PMC9917184, “Synthesis and Biological Evaluation of Potential Oncoimmunomodulator Agents” (International Journal of Molecular Sciences, 2023).

One assay concerns membrane VEGFR-2. Nature of the assay: Membrane VEGFR-2 relative quantification by flow cytometry in cancer cells co-cultured with Jurkat T cells. It is filed as cell-based, human. The conditions noted are these: 100 μM, 24 h, relative to non-treated co-cultures. On the procedure: (§1) We determined by flow cytometry the effect of these compounds on the expression of membrane PD-L1 in cancer cells when they were co-cultured with immune cells. Thus, interferon γ-stimulated cancer cells were treated for 24 h with the compounds at 100 μM in presence of Jurkat T cells. Then, cells were fixed and treated with anti-PD-L1 conjugated to AlexaFluor®647. We took advantage of the versatility of flow cytometry to simultaneously measure the expression of membrane VEGFR-2 by using anti-VEGFR-2 conjugated to fluorescein.
(§2) To study the effect of the compounds on every biological target in co-cultured cancer cell lines, the compounds were incubated for 24h as described before.
(§3) To detect membrane PD-L1 and VEGFR-2, after the cell treatments, they were collected, fixed with 4% in PBS paraformaldehyde, and stained with FITC Mouse monoclonal Anti-Human VEGFR-2 (ab184903) and Alexa Fluor® 647 Rabbit monoclonal Anti-PD-L1 (ab215251).

The test system of another assay is A-549. Nature of the assay: A-549 cell viability in co-culture with Jurkat T cells (flow cytometry count). It counts as cell-based, human. The conditions noted are these: 24 h; for viability at 100 µM: Homo sapiens, A549, A-549/Jurkat T co-culture, IFN-γ stimulated, read-out: percentage of living A-549 cells relative to non-treated co-cultures. Here is the method: (§4) The effect of the synthesized compounds on tumor cell proliferation in the presence of PD-1-expressing Jurkat T cells was also studied. This assay was carried out, as in the previous experiments, in the HT29, MCF7, and A549 cell lines (see Table 4). Interferon γ-stimulated cancer cells were treated for 24 h with the compounds at 100 μM in presence of Jurkat T cells. Then, cells were counted using flow cytometry. The percentage of living cells relative to non-treated co-cultures (control) was established for both cancer and immune cells in every co-culture.
(§5) To study the effect of the compounds on the cell viability in co-culture with Jurkat T cells or THP-1 cells, 10^5 or 2 × 10^5 of the corresponding cancer cells line per well were seeded and incubated for 24 h, then the medium was changed by one cell culture medium supplemented with IFN-γ (10 ng/mL; human, Invitrogen®) and containing 5 × 10^5 or 10^5 Jurkat T cells or THP-1, respectively, per well and 100 µM of the corresponding compound or DMSO for the […] control. After 24 h/48 h of incubation, supernatants were collected to determine Jurkat T or THP-1 living cells, and on the other hand, corresponding cancer cells were collected with trypsin. Both types of suspension cells were fixed with 4% in PBS paraformaldehyde and counted by flow cytometry.

A further assay has as its target T1, membrane PD-L1 (Homo sapiens, UniProt Q9NZQ7).
T1 construct: Alexa Fluor® 647 Rabbit monoclonal Anti-PD-L1 (ab215251); endogenous in cells; host or cells: HT-29, MCF-7, A-549 (A17: MCF-7 only; A14: IFN-gamma-stimulated cancer cells co-cultured with Jurkat T cells)
Kind of assay: Membrane PD-L1 relative quantification by flow cytometry in cancer cells co-cultured with Jurkat T cells. It counts as cell-based. The conditions noted are these: Jurkat, 24 h; for remaining activity at 100 µM: relative to non-treated co-cultures, read-out: % PDL1 (membrane); for inhibition at 100 µM: HT-29 co-cultured with Jurkat T cells, read-out: membrane PD-L1 inhibition rate. Here is the method:
as §1, §2, §3

For another assay, the system named is HT-29. Nature of the assay: HT-29 cell viability in co-culture with Jurkat T cells (flow cytometry count). The conditions noted are these: Homo sapiens, HT-29/Jurkat T co-culture, IFN-γ stimulated, 24 h, read-out: percentage of living HT-29 cells relative to non-treated co-cultures. It counts as cell-based, human. On the procedure:
as §4, §5

The test system of another assay is Jurkat T cells. Nature of the assay: Jurkat T cell viability in co-culture with cancer cells (flow cytometry count). It counts as cell-based. The settings on record: Homo sapiens, 24 h, read-out: percentage of living Jurkat cells relative to non-treated co-cultures. On the procedure:
as §4, §5

The test system of the next assay is MCF-7. Kind of assay: MCF-7 cell viability in co-culture with Jurkat T cells (flow cytometry count). It counts as cell-based, human. The conditions noted are these: 24 h; for viability at 100 µM: Homo sapiens, MCF7, MCF-7/Jurkat T co-culture, IFN-γ stimulated, read-out: percentage of living MCF-7 cells relative to non-treated co-cultures; for inhibition rate of MCF-7 cell viability: co-cultured with Jurkat T cells, 100 μM. On the procedure:
as §4, §5

A further assay has as its target PD-L1 (Homo sapiens, UniProt Q9NZQ7). Nature of the assay: Total PD-L1 relative quantification by flow cytometry in cancer cell lines. It counts as cell-based. Also on record: Alexa Fluor® 647 Rabbit monoclonal Anti-PD-L1 (ab215251); endogenous in cells; host or cells: HT-29. The conditions noted are these: 24 h, total PD-L1 relative to negative control (DMSO). On the procedure: (§6) The effect of these triazole derivates on c-Myc and PD-L1 was measured in three different cancer cell lines (HT-29, MCF-7, A-549) by flow cytometry. Thus, cells were incubated for 24 h with the corresponding compound at a concentration of 100 μM. Dimethyl sulfoxide (DMSO)-treated cells were used as the negative control, and a PD-L1 inhibitor, BMS-8 [29, 31], was used as a reference control. After permeabilization and fixation, cells were treated with anti-PD-L1 conjugated to AlexaFluor®647 and anti-c-Myc conjugated to fluorescein to determine the amount of both targets related to the negative control. Table 1 show the results in terms of the percentage of the detected target in relation to the negative control. This assay was carried out on cancer cell lines HT-29, MCF-7, and A-549.
(§7) To study the effect of the compounds on every biological target in cancer cell lines, the compounds were used at a 100 µM dose.
(§8) For the assay, 10^5 cells per well were incubated for 24 h with the corresponding dose of the tested compound in a total volume of 500 μL of their growth media.
(§9) To detect total PD-L1 and c-Myc, after the cell treatments, they were collected and fixed with 4% in PBS paraformaldehyde. After fixation, a treatment with 0,5% in PBS Triton™ X-100 was performed, and finally, cells were stained with FITC Mouse monoclonal Anti-c-Myc (ab223913) and Alexa Fluor® 647 Rabbit monoclonal Anti-PD-L1 (ab215251).

Another assay deals with c-Myc. Nature of the assay: Total c-Myc relative quantification by flow cytometry in cancer cell lines. It counts as cell-based, human. The settings on record: 24 h. On the procedure:
as §6, §7, §8, §9

[1] abbreviates: A549 co-cultured with Jurkat T cells.
The mark [2] stands for this setting: HT29 co-cultured with Jurkat T cells.
Setting [3] is: MCF7 co-cultured with Jurkat T cells.
The mark [4] stands for this setting: A-549, 100 µM, relative to negative control (DMSO).
The mark [5] stands for this setting: HT-29, 100 µM, detected target relative to negative control (DMSO).
Where [6] appears, read: MCF-7, 100 µM, relative to negative control (DMSO).

Like-named read-outs stand apart in the source and are kept apart here.

Sequence of PD-L1 (Q9NZQ7 19-290): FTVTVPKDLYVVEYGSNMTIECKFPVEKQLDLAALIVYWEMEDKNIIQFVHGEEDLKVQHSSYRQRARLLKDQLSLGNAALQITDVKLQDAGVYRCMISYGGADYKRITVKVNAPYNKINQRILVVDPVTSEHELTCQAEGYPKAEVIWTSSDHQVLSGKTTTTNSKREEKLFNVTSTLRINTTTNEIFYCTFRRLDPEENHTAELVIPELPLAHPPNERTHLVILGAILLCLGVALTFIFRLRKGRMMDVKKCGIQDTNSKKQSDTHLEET
T1 sequence (Q9NZQ7 19-290): as above

As for `COc1ccc(C(OCCc2ccc(CCn3cc(-c4cccc(OC)c4)nn3)cc2)(c2ccccc2)c2ccc(OC)cc2)cc1` [Compound 11, 1-(4-(2-(bis(4-methoxyphenyl)(phenyl)methoxy)ethyl)phenethyl)-4-(3-methoxyphenyl)-1H-1,2,3-triazole], the figures for the “%VEGFR2 (membrane)” value with membrane VEGFR-2 (setting [1]), in the assay on membrane VEGFR-2 (setting [2]) and in the assay with membrane VEGFR-2 (setting [3]) were 85 ± 1%, 79 ± 10% and 92 ± 10%, respectively. Further, the viability at 100 µM was 102 ± 4% in the assay on A-549; 65 ± 6% with HT-29; 511 ± 86% with Jurkat T cells (A-549/Jurkat T co-culture); 76 ± 52% in the assay on Jurkat T cells (HT-29/Jurkat T co-culture); 79 ± 13% in the assay on Jurkat T cells (MCF-7/Jurkat T co-culture); 50 ± 1% in the assay with MCF-7. Also, the remaining activity at 100 µM at membrane PD-L1 (setting [1]) was found to be 94 ± 1%; at membrane PD-L1 (setting [2]), 104 ± 14%; on membrane PD-L1 (setting [3]), 48 ± 7%; on PD-L1 (A549, A-549, 100 µM), 104 ± 1%; at PD-L1 (HT-29, 100 µM), 48 ± 4%; at PD-L1 (MCF7, MCF-7, 100 µM), 108 ± 7%. Besides, the “inhibition rate of MCF-7 cell viability” value in the assay with MCF-7 is “half”. In addition, the “% c-Myc” value was 55 ± 4% with c-Myc (setting [4]), 50 ± 3% with c-Myc (setting [5]) and 81 ± 2% in the assay with c-Myc (setting [6]). The compound also had a c-Myc inhibition in the assay on c-Myc (HT-29, 100 μM) of 50%.

For the compound `OCCc1ccc(CCn2cc(-c3ccccc3Br)nn2)cc1` [Compound 8, 2-(4-(2-(4-(2-bromophenyl)-1H-1,2,3-triazol-1-yl)ethyl)phenyl)ethan-1-ol], the “%VEGFR2 (membrane)” value with membrane VEGFR-2 (setting [1]) was found to be 104 ± 5%; in the assay on membrane VEGFR-2 (setting [2]), 97 ± 4%; in the assay with membrane VEGFR-2 (setting [3]), 108 ± 6%. The viability at 100 µM turned out to be 72 ± 9% in the assay on A-549; 97 ± 10% in the assay with HT-29; 88 ± 34% with Jurkat T cells (A-549/Jurkat T co-culture); 95 ± 5% in the assay with Jurkat T cells (HT-29/Jurkat T co-culture); 164 ± 9% in the assay with Jurkat T cells (MCF-7/Jurkat T co-culture); 49 ± 10% in the assay on MCF-7. Besides, the “inhibition rate of A-549 cell viability” value in the assay with A-549 (co-cultured with Jurkat T cells, 100 μM) is on record as “around 30%”. Also, the remaining activity at 100 µM at membrane PD-L1 (setting [1]) was found to be 84 ± 8%; on membrane PD-L1 (setting [2]), 58 ± 6%; on membrane PD-L1 (setting [3]), 46 ± 9%; at PD-L1 (A549, A-549, 100 µM), 44 ± 8%; at PD-L1 (HT-29, 100 µM), 115 ± 5%; on PD-L1 (MCF7, MCF-7, 100 µM) it was 81 ± 1%. At membrane PD-L1, the inhibition at 100 µM fell in the range of 40 to 50%. The results for the “% c-Myc” value in the assay on c-Myc (setting [4]), with c-Myc (setting [5]) and with c-Myc (setting [6]) were 48 ± 7%, 88 ± 2% and 92 ± 6%, respectively.

For the compound `COc1ccc(C(OCCc2ccc(CCn3cc(-c4ccccc4OC)nn3)cc2)(c2ccccc2)c2ccc(OC)cc2)cc1` [Compound 13, 1-(4-(2-(bis(4-methoxyphenyl)(phenyl)methoxy)ethyl)phenethyl)-4-(2-methoxyphenyl)-1H-1,2,3-triazole], the “%VEGFR2 (membrane)” value is given as 80 ± 8% with membrane VEGFR-2 (setting [1]), 89 ± 2% with membrane VEGFR-2 (setting [2]) and 120 ± 8% in the assay with membrane VEGFR-2 (setting [3]). Further, the viability at 100 µM came out at 103 ± 4% in the assay on A-549; 153 ± 15% with HT-29; 90 ± 2% in the assay on Jurkat T cells (A-549/Jurkat T co-culture); 110 ± 9% in the assay with Jurkat T cells (HT-29/Jurkat T co-culture); 79 ± 5% in the assay with Jurkat T cells (MCF-7/Jurkat T co-culture); 43 ± 1% in the assay on MCF-7. In addition, the remaining activity at 100 µM on membrane PD-L1 (setting [1]) worked out at 83 ± 6%; on membrane PD-L1 (setting [2]), 57 ± 12%; on membrane PD-L1 (setting [3]), 33 ± 4%; at PD-L1 (A549, A-549, 100 µM), 120 ± 5%; on PD-L1 (HT-29, 100 µM) it was 102 ± 1%; at PD-L1 (MCF7, MCF-7, 100 µM), 87 ± 6%. Also, the inhibition at 100 µM on membrane PD-L1 is 40 to 50%. The “inhibition rate of MCF-7 cell viability” value with MCF-7 was “around 60%”. In the assay on c-Myc (A-549, 100 μM), this compound gave a c-Myc inhibition rate of 50%. For the same compound, the entries for the “% c-Myc” value with c-Myc (setting [4]), in the assay with c-Myc (setting [5]) and with c-Myc (setting [6]) were 51 ± 2%, 68 ± 3% and 77 ± 5%, respectively.
